Reference: patent US10239887B2, “Positive allosteric modulators of the muscarinic acetylcholine receptor M4” (Vanderbilt University, priority 2016, dated 2019)
Where a name gives a salt, the structure may show the parent alone.

Biological target: T1, human mAChR M4 (Homo sapiens, UniProt P08173)
T1 sequence (P08173 1-479): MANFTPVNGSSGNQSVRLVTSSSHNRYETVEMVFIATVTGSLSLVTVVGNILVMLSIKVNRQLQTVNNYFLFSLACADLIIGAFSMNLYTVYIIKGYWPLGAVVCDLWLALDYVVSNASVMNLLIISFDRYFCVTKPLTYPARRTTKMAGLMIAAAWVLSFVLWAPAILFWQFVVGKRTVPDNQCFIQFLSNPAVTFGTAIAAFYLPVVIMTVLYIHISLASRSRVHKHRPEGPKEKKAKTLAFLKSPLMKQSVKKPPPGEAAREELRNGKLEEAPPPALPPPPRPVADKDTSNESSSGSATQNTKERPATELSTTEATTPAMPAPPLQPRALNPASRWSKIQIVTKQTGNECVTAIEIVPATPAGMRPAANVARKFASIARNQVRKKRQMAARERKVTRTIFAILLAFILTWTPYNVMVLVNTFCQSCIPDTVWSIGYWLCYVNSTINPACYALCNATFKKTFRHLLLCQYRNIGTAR
Test: mAChR M4 cell-based functional assay (calcium flux), human M4
Conditions: for EC50: Human M4 EC50 (nM), calcium flux, PAM activity with EC20 acetylcholine

[1] = Table 10, % ACh maximum at 30 μM
[2] = Table 11, % ACh maximum at 30 μM

EC50 (Table 10) | Emax [1] | Emax [2] | EC50 (Table 11) | Compound | Emax (%) [1]
1400 nM | 54.2% | – | – | Cc1cc(C)c2c(n1)sc1c(NCc3cnc(C)nc3)ncnc12 [Compound 205, 7,9-dimethyl-N-[(2-methylpyrimidin-5-yl)methyl]pyrido[3′,2′:4,5] thieno[3,2-d] pyrimidin-4-amine] | –
462 nM | 75.4% | – | – | Cc1cc(C)c2c(n1)sc1c(NC3CN(c4ccnc(C5(O)CCC5)c4)C3)ncnc12 [Compound 208, 1-[4-[3-[(7,9-dimethylpyrido [3′,2′:4,5]thieno[3,2-d]pyrimidin-4-yl)amino]azetidin-1-yl]-2-pyridyl]cyclobutanol] | –
154 nM | 87.6% | – | – | CNC(=O)c1cc(CNc2ncnc3c2sc2nnc(C)c(C)c23)ccc1F [Compound 187, 5-[[(3,4-dimethylpyrimido [4′,5′:4,5]thieno[2,3-c]pyridazin-8-yl)amino]methyl]-2-fluoro-N-methyl-benzamide] | –
– | – | 100% | – | COC(C)(C)c1ccc(CNc2ncnc3c2sc2nnc(C)c(C)c23)cc1 [Compound 367, N-[[4-(1-methoxy-1-methyl-ethyl)phenyl]methyl]-3,4-dimethyl-pyrimido[4′,5′:4,5] thieno[2,3-c]pyridazin-8-amine] | –
590 nM | 84.9% | – | – | Cc1nnc2sc3c(NCc4ccc(C(=O)N5CC(F)(F)C5)cc4)ncnc3c2c1C [Compound 156, (3,3-difluoroazetidin-1-yl)-[4-[[(3,4-dimethlpyrimido [4′,5′:4,5]thieno[2,3-c]pyridazin-8-yl)amino]methyl]phenyl]methanone] | –

The next lines start with the molecule.

Compound | EC50 (Table 10) | Emax [1] | Emax [2] | EC50 (Table 11) | Emax (%) [1]
COc1ccc(CNc2ncnc3c2sc2nnc(Cl)c(C)c23)cc1F [Compound 212, 3-chloro-N-[(3-fluoro-4-methoxy-phenyl)methyl]-4-methyl-pyrimido[4′,5′:4,5] thieno[2,3-c]pyridazin-8-amine] | 405 nM | 80% | – | – | –
Cc1nc2sc3c(NCc4cccc(C5(O)CCC5)c4)ncnc3c2c(C)c1Cl [Compound 277, 1-[3-[[(8-chloro-7,9-dimethyl-pyrido [3′,2′:4,5]thieno[3,2-d]pyrimidin-4-yl)amino]methyl]phenyl]cyclobutanol] | 2320 nM | 70.5% | – | – | –
Cc1nnc2sc3c(NCc4ccc(C(C)(C)CO)cc4)ncnc3c2c1C [Compound 375, 2-[4-[[(3,4-dimethylpyrimido[4′,5′:4,5]thieno[2,3-c]pyridazin-8-yl)amino]methyl]phenyl]-2-methyl-propan-1-ol] | – | – | 87.2% | 138 nM | –
CNC(=O)c1ccc(CNc2ncnc3c2sc2nnc(C)c(C)c23)cc1Cl [Compound 325, 2-chloro-4-[[(3,4-dimethylpyrimido [4′,5′:4,5]thieno[2,3-c]pyridazin-8-yl)amino]methyl]-N-methyl-benzamide] | – | – | 78.8% | 62.2 nM | –
CNC(=O)c1cc(CN(C)c2ncnc3c2sc2nnc(C)c(C)c23)ccc1F [Compound 333, 5-[[(3,4-dimethylpyrimido [4′,5′:4,5]thieno[2,3-c]pyridazin-8-yl)(methyl)amino]methyl]-2-fluoro-N-methyl-benzamide] | – | – | 39.1% | 1810 nM | –
Cc1cc(C)c2c(n1)oc1c(NC3CC3c3ccc(F)c(F)c3)ncnc12 (stereo not shown) [Compound 294, N-[2-(3,4-difluorophenyl)cyclopropyl]-7,9-dimethyl-pyrido[3′,2′:4,5]furo [3,2-d]pyrimidin-4-amine hydrochloride] | 3380 nM | 56.3% | – | – | –
Cc1nnc2sc3c(NC4CC5(C4)CN(c4ncc(F)cc4Cl)C5)ncnc3c2c1C [Compound 163, N-[2-(3-chloro-5-fluoro-2-pyridyl)-2-azaspiro [3.3]heptan-6-yl]-3,4-dimethyl-pyrimido [4′,5′:4,5]thieno[2,3-c] pyridazin-8-amine] | 1440 nM | 42.9% | – | – | –
Cc1cc(C)c2c(n1)oc1c(NC3CN(c4cc(Cl)ncc4Cl)C3)ncnc12 [Compound 290, N-[1-(2,5-dichloro-4-pyridyl)azetidin-3-yl]-7,9-dimethyl-pyrido[3′,2′:4,5]furo[3,2-d]pyrimidin-4-amine dihydrochloride] | 1490 nM | – | – | – | 49.29%
